# Measurements taken from patent US20230241000A1, “GSK3 INHIBITOR-LOADED NANO FORMULATIONS AS A CANCER IMMUNOTHERAPEUTIC” (The Regents of the University of California, priority 2020, published 2023).
# “Also recorded” adds a separate entry of the source.
# What was measured:
# [1] = Remote loading of GSK3 inhibitors into silicasomes: encapsulation efficiency and loading capacity; format: physicochemical
# Experimental: The overall scheme for the synthesis of silicasome carriers to deliver GSK3 inhibitors is outlined in FIG. 3. Briefly, a large batch (i.e. 120 g) synthesis of bare particles was carried out as previously, yielding ˜70 nm MSNPs (FIG. 3, panel A) (22). […] 20 mg soaked-in MSNPs were then used together with an ethanol suspended lipid solution, comprised of a mixture of 60 mg DSPC:Cholesterol:PE-PEG2000 (molar ratio of 6:4:0.3), for coating with a lipid bilayer by a flow through sonication procedure (FIG. 3, panel B). Following the removal of the non-encapsulated trapping agent, AZD2858, AZD1080, LY2090314, and 1-Azakenpaullone were dissolved in 0.9% saline and incubated with the silicasome carrier to assess the loading capacity in response to different feed weight percentages (FIG. 11).
# Four GSK3 inhibitor-laden silicasome formulations were analyzed to assess encapsulation efficiency and loading capacity. 100 μL of the silicasomes suspension at 10 mg/mL in 0.9% NaCl (1 mg silicasomes) was added to AZD1080, AZD2858, LY2090314, and 1-azakenpaullone solutions, which were prepared by adding 50, 100 or 200 μg of each inhibitor to 900 μL water. These drug mass quantities provided feed weight percentages of 5, 10, and 20%, in comparison to the silicasome mass. Following execution of the remote loading procedure as detailed above, the crude solutions were used to assess absorbance in a glass bottom 96-well plate (Total Drug Absorbance). Silicasomes were centrifuged at 21,000×g for 15 minutes to pellet the particles. After removal of the supernatant, the silicasomes were re-suspended in aa fresh 0.9% NaCl solution. This was repeated three times to remove any unloaded inhibitor. The silicasome solution was then sampled and absorbance was measured to determine Loaded Drug Absorbance. Concentration-matched unloaded ‘blank’ silicasomes also had absorbance measured (Silicasome Blank Absorbance). Encapsulation efficiency was calculated by the following formula: […]
# All measurements were taken using a SpectraMax M5 plate reader (Molecular Devices). All solutions were diluted 1/10 in 0.9% NaCl solution prior to absorbance reads. The absorbances used for each compound were: 418 nm for AZD1080, 383 nm for AZD2858, 213 nm for LY2090314, and 334 nm for 1-azakenpaullone.
# [2] = humans; literature (15); cited from earlier work
# [3] = Safety analysis in MC38 mice (animal weight, blood chemistry, organ H&E histology); format: in vivo, C57BL/6 mice; conditions: serum at sacrifice
# Experimental: While there is sparse literature on the use of AZD1080 in animal studies, this agent had to be discontinued in a phase I clinical trial in humans due to nephrotoxicity (15).
# The histology preparation and staining of tumor tissue and mouse organs was performed in the Pathology Core Facility of the UCLA Jonsson Comprehensive Cancer Center. Tissues were fixed in 10% neutral-buffered formalin for 24 hours, then gradually dehydrated in 25-75% ethanol solutions over 3 days. Tissues were embedded in paraffin, sectioned at 4 μm thickness, and stained by anti-CD8, anti-cleaved caspase 3, anti-perforin, anti-PD-1, or haemotoxylin and eosin (H&E). Slides were digitally scanned for analysis using Aperio ImageScope software (Leica Biosystems, Buffalo Grove, Ill.). Four fields of view were analyzed per tumor at 20× magnification, with all positively stained cells counted within the field and averaged across fields. The investigator was blinded with respect to the animal groups to avoid bias during counting. Fields of view were chosen to avoid the tumor periphery and processing artifacts.
# At the time of sacrifice, blood was obtained by cardiac puncture from MC38 tumor growing animals and collected into Greiner Bio-One MiniCollect Capillary Blood collection system tubes. Tubes were centrifuged as per manufacturer's instructions to separate serum from blood cells. The serum was frozen at […] and subsequently used, to obtain a comprehensive serum chemistry panel, develop by IDEXX Laboratories (Westbrook, Me.), for use in the UCLA Division of Laboratory Animal Medicine (DLAM).
# [4] = Maximum tolerated dose study of free AZD1080; format: in vivo; conditions: one-time tail vein injection, 5 to 25.3 mg/kg, weights recorded 14 days; listed as free AZD1080
# Experimental: Dotted lines represent thresholds for toxicity (−15%) and weight loss requiring euthanasia (20%). Body weight changes are relative to individual mouse initial weights. N=4 mice per group, error bars are SEM.
# In order to establish a safe working concentration for murine experiments on AZD1080, we used a previously established dose of 5 mg/kg for the treatment of an Alzheimer's-like disease process in rats (29) for planning of a maximum tolerated dose assessment (FIG. 14). […] This prompted us to continue the use of the established dose of 5 mg/kg, for a total of three injections in our animal studies.
# The maximum tolerated dose of AZD1080 was determined using a protocol from the National Cancer Institute (72). C57BL/6 mice were injected with AZD1080 solutions via tail vein (100 μL) and weights were recorded daily for 14 days. AZD1080 was solubilized in 30% PEG400, 0.5% Tween-80, 5% polyethylene, and 64.5% 1×PBS. The injected amounts of AZD1080 were 5, 7.5, 11.25, 16.87, or 25.31 mg/kg per mouse, n=4 mice per group.
smiles,measurement,setting,value
N#Cc1ccc2[nH]c(O)c(-c3ccc(CN4CCOCC4)cn3)c2c1 [AZD1080],Encapsulation Efficiency,"[1]; AZD1080 remote loaded in silicasome, feed weight of 5%, ± SD, 3 samples",62.5%
same,Loading Capacity,"[1]; AZD1080 remote loaded in silicasome, ± SD, 3 samples",8.1 w/w %
same,solubility during remote loading (in words),"[1]; dissolved in 0.9% saline, incubated with silicasome carrier, feed weight %",good aqueous solubility
same,encapsulation efficiency in silicasomes (in words),"[1]; remote loading at 5, 10 or 20 feed weight %",highest encapsulation efficiency; also recorded: moderate efficiency
same,toxicity leading to discontinuation in phase I clinical trial,[2],nephrotoxicity
same,albumin:globulin ratio,[3],depress
same,blood chemistry panel (overall),[3],more variation in blood chemistry
same,total bilirubin and BUN levels,[3],reductions
same,"tolerability on dose escalation (weight loss, behavior, mortality, adverse events)",[4],"devoid of significant weight loss, abnormal behavior or posture, mortality or other adverse events"
